Data reported in patent US11124509B2, “Tri-substituted imidazoles for the inhibition of TGF beta and methods of treatment” (CLAVIUS PHARMACEUTICALS, LLC, priority 2017, dated 2021).
Counter-ions that a name gives are not always drawn. Like-named read-outs stand apart in the source and are kept apart here.

Tests used:
TGFBR1 (ALK5) = TGFBR1 (ALK5) (Homo sapiens (Human), UniProt P36897); assay: LanthaScreen Eu Kinase Binding Assay TGFBR1 (ALK5) (ThermoFisher SelectScreen); conditions: read-out: TβRI (ALK5) Binding IC50
Method: (§1) Exemplified compounds were confirmed to inhibit ALK5 activity in enzyme and cellular assays in the following assay systems conducted by ThermoFisher in Madison, Wis. according to their commercially available protocols.
ThermoFisher SelectScreen™ Biochemical Kinase Profiling Service, LanthaScreen™Eu Kinase Binding Assay TGFBR1 (ALK5)
Exemplified compounds were screened in 1% DMSO (final concentration) by 3-fold serial dilutions from 10,000 nM to 0.316 nM to produce an IC50 or at single concentrations of 10,000, 1000 and 100 nM according to the following protocol. To low volume, white 384-well plates (Greiner Cat #784207) add 160 nL 100× compound in 100% DMSO, 3.84 uL kinase buffer (50 mM HEPES, pH 7.5, 0.01% BRIJ-35, 10 mM MgCl2, 1 mM EGTA), 8 uL 2× kinase/antibody mixture in kinase buffer (final ALK5 concentration of 5 nM; final Eu-anti-GST antibody concentration of 2 nM), 4 uL 4× Tracer #178 in kinase buffer (final concentration of 5 nM). Gently shake the plates for 30 seconds and incubate at room temperature for 1 hour before reading fluorescence on a plate reader. Percent inhibition was determined compared to DMSO only control (maximal ALK5 tracer binding) and sigmoidal dose response curve fit yielded IC50 values as indicated in Table 2.

[1] = system: TGF-beta 1 stimulated SBE-b1a HEK 293T cells; assay: GeneBLAzer beta-lactamase reporter, TGF-beta 1 stimulated SBE-b1a HEK 293T cell-based assay (ThermoFisher SelectScreen); conditions: Homo sapiens, HEK-293T; TGF-beta 1 0.03 nM, 5 hours; inhibitor 10,000 nM to 0.316 nM; sigmoidal dose response curve fit; read-out: Cells (SBE_HEK293T) IC50
Method: as §1
ThermoFisher SelectScreen™ Cell-Based Pathway Profiling Service GeneBLAzer Beta-Lactamase (b1a) Reporter Technology—TGF-Beta 1 Stimulated SBE-b1a HEK 293T Cell-Based Assay
SBE-b1a HEK 293T cells were thawed and re-suspended in Assay Media (OPTI-MEM, 0.5% dialyzed FBS, 0.1 mM NEAA, 1 mM Sodium Pyruvate, 100 U/mL/100 μg/mL Pen/Strep) to a concentration of 625,000 cells/mL. 32 μL of cell suspension (20,000 cells) was added to each well of a 384-well Poly-D-Lysine assay plate. Cells in Assay Media were incubated for 16-24 hours in the plate at 37° C./5% CO2 in a humidified incubator. 4 μL of a 10× serial dilution of ALK5 inhibitors (10x=100,000-3.16 nM) was added to appropriate wells of the plate and pre-incubated at 37° C./5% CO2 in a humidified incubator with cells for 30 minutes. Final concentration of inhibitor ranged from 10,000 nM to 0.316 nM. 4 μL of 10× TGF-beta 1 (final concentration of 0.03 nM) was added to wells containing the inhibitors. The plate was incubated for 5 hours at 37° C./5% CO2 in a humidified incubator. 8 μL of 1 μM Substrate Loading Solution was added to each well and the plate was incubated for 2 hours at room temperature before being read on a fluorescence plate reader. Percent inhibition was determined compared to DMSO only control (maximal TGF-beta 1 stimulation) and sigmoidal dose response curve fit yielded IC50 values as indicated in Table 2.

[2] = compounds marked with an asterisk: evaluated at three concentrations, IC50 depicted as less than the lowest concentration producing >50% inhibition
[3] = 3-fold serial dilutions 10,000 nM to 0.316 nM, ALK5 5 nM, Tracer #178 5 nM, sigmoidal dose response curve fit

Chain of TGFBR1 (ALK5) (P36897 34-503): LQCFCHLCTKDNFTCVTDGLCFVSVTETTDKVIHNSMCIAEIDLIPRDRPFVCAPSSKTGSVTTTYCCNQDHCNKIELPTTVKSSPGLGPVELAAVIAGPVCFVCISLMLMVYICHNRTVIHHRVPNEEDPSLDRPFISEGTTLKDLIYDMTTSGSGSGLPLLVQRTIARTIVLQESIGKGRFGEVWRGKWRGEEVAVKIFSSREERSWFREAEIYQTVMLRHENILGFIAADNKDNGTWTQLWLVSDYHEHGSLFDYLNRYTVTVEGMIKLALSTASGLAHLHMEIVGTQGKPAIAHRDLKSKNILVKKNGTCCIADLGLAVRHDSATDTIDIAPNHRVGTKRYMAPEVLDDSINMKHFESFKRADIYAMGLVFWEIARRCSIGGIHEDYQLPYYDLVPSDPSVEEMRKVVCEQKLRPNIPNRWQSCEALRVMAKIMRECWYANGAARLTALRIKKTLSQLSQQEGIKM

IC50 (TGFBR1 (ALK5); [2]) [nM]	IC50 (TGFBR1 (ALK5); [3]) [nM]	Structure (SMILES)	IC50 [1] [nM]
< 100		CC(C)n1ccc(-c2nc(CNc3cccc(C(N)=O)c3)[nH]c2-c2ccc3ncnn3c2)n1 [Compound 29, 3-(((5-([1,2,4]triazolo[1,5-a]pyridin-6-yl)-4-(1-isopropyl-1H-pyrazol-3-yl)-1H-imidazol-2-yl)methyl)amino)benzamide]	4620
< 100		CC(C)n1ccc(-c2nc(CNc3cccc(C#N)c3)[nH]c2-c2ccc3ncnn3c2)n1 [Compound 28]	757
< 100		CC(C)n1ccc(-c2nc(CNc3cccc(-n4cccn4)c3)[nH]c2-c2ccc3nccnc3c2)n1 [Compound 40]	1050
	33	CC(C)n1ccc(-c2nc(CNc3cccc(C#N)c3)[nH]c2-c2ccc3nccnc3c2)n1 [Compound 41]	77.5
	6.66	Cc1nc(-c2ccn(C)n2)c(-c2ccc3ncsc3c2)[nH]1 [Compound 44, 6-(2-methyl-4-(1-methyl-1H-pyrazol-3-yl)-1H-imidazol-5-yl)benzo[d]thiazole]	37.4
< 100		CC(C)n1ccc(-c2nc(CNc3cc(F)ccc3F)[nH]c2-c2ccc3nccnc3c2)n1 [Compound 45]	323
< 100		CC(C)n1ccc(-c2nc(CNc3cccc(F)c3)[nH]c2-c2ccc3nccnc3c2)n1 [Compound 22, 3-fluoro-N-((4-(1-isopropyl-1H-pyrazol-3-yl)-5-(quinoxalin-6-yl)-1H-imidazol-2-yl)methyl)aniline hydrochloride]	1090
< 200		Cn1ccc(-c2nc(CNc3cccc(F)c3)[nH]c2-c2ccc3ncccc3c2)n1 [Compound 24]	1930
	5.6	Fc1cccc(NCc2nc(-c3ccn(C(F)F)n3)c(-c3ccc4nccnc4c3)[nH]2)c1 [Compound 46]	11.6
< 100		Cn1ccc(-c2nc(-c3ccc(C(N)=O)cc3)[nH]c2-c2ccc3nccnc3c2)n1 [Compound 43]	485
	45.8	Cn1ccc(-c2nc(C(N)=O)[nH]c2-c2ccc3ncsc3c2)n1 [Compound 62, 5-(benzo[d]thiazol-6-yl)-4-(1-methyl-1H-pyrazol-3-yl)-1H-imidazole-2-carboxamide]	1130
	44.6	CNC(=O)c1ccc(-c2nc(-c3ccn(C)n3)c(-c3ccc4ncsc4c3)[nH]2)cc1 [Compound 64, 4-(5-(benzo[d]thiazol-6-yl)-4-(1-methyl-1H-pyrazol-3-yl)-1H-imidazol-2-yl)-N-methylbenzamide]	632
	78	CC(C)n1ccc(-c2nc(CNc3cc(F)cc(C(N)=O)c3)[nH]c2-c2ccc3nccnc3c2)n1 [Compound 58]	3920
	399	Cc1cc(C(N)=O)cc(C)c1-c1nc(-c2ccn(C)n2)c(-c2ccc3ncsc3c2)[nH]1 [Compound 63]	3030
